Data set [1] in a line: GI S9 stability, human, Example Y. As to conditions: pooled intestinal S9 fractions; human intestinal S9, 1.0 mg/mL protein, 2 μM compound, pH 7.4; read-out: GIS9 Human T½ (per Ex. Y). It is filed as in vitro ADME. On the procedure:
Example Y: GI S9 Stability Data
Stock solutions of test compounds in dimethyl sulfoxide (DMSO) having a final concentration of 10 mM were prepared and used in all experiments. Sekisui XenoTech (Kansas City, KS) provided pooled intestinal S9 fractions. All other chemicals were purchased from Sigma-Aldrich (St. Louis, MO) or VWR (West Chester, PA). Internal Standard/Quench (IS/Q) used to stop reactions was 100 nM labetalol in (by volume) methanol (10%) and acetonitrile (90%).
Stability in Intestinal S9 Fractions: Duplicate aliquots of test compound or positive control substrate were added to S9 stock diluted with phosphate buffered saline (137 mM NaCl, 2.7 mM KCl, 10 mM phosphate buffer), pH 7.4, to obtain a protein concentration of 1.0 mg/mL. The metabolic reactions were initiated by the addition of the substrates to the S9 reaction mixture to a final concentration of 2 μM. At 0, 10, 20, 30, 60 and 120 min, 25 μL aliquots of the reaction mixture were transferred to plates containing 225 μl of IS/Q solution. After quenching, the plates were centrifuged at 3000×g for 30 minutes. 150 μL aliquots of each supernatant were dried down then reconstituted with 300 μL water. Aliquots (10 μL) of the prepared samples were analyzed on a Thermo Q-Exactive mass spectrometer as described below.
Liquid Chromatography—Mass Spectrometry: Quantification of test compounds and control substrate was performed by analyte/internal standard peak area ratio (PAR) values measured on a Thermo Q-Exactive mass spectrometer coupled to a Dionex UltiMate 3000 HPLC with a Leap Technologies HTC PAL autosampler. The column used for analysis was a Waters Acquity BEH C18 (1.7 μm particle size, 2.1×50 mm). Mobile phase A consisted of 0.1% (v/v) formic acid in water. Mobile phase B consisted of 0.1% (v/v) formic acid in acetonitrile. Elution of analytes was achieved by a series of linear gradients varying the proportions of A and B. The mass spectrometer was calibrated on a weekly basis and mass tolerance of 5 ppm was used.
Metabolic stabilities in S9 fractions were determined by measuring the rates of disappearance of test compound and positive control substrate.
Data (% of substrate remaining) were plotted on a semi-log scale and fitted using an exponential decline model:
Ct=C0×e^−ln2/T1/2×t • Where Ct—% of substrate remaining at time=t; C0—% of substrate remaining at time=0; t—time; T1/2—half-life. • The Half-life (T1/2) is determined by the following equation: […]
Assuming a first-order reaction, the slope (k) is extrapolated from the aforementioned plotted data.

Data set [2] deals with Respiratory syncytial virus recombinant with luciferase (RSV-Luc5). Description: HEp-2 RSV-Luc5 384-well assay (EC50 RSVFLUC Hep2-384 v2), Example V. It is filed as cell-based. Particulars: human respiratory syncytial virus, HEp-2, 72 h, read-out: EC50 RSV FLuc Hep-2 384 V2 (per Ex. V). The procedure, abridged:
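HEp-2 cells (4,000/well) seeded onto spotted compounds (10-point, 1:3 dilutions) and infected with RSV-Luc5 at MOI 0.5. After 3 days at 37 °C, luciferase read with One-Glo. Signal normalized to remdesivir (0%) and DMSO (100% replication) controls; EC50 from non-linear regression.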

Regarding `COC[C@@H](C)OC(=O)OC[C@@]1(C#N)O[C@@H](c2ccc3c(N)ncnn23)[C@H](O)[C@@H]1O` [Compound 38, ((2R,3S,4R,5S)-5-(4-aminopyrrolo[2,1-f][1,2,4]triazin-7-yl)-2-cyano-3,4-dihydroxytetrahydrofuran-2-yl)methyl ((R)-1-methoxypropan-2-yl) carbonate], the half-life at 2 μM in data set [1] stood at 292 min. Moreover, the 50% effective concentration (EC50) in data set [2] came to 50 µM.

In the case of `N#C[C@]1(COC(=O)O[C@@H]2C[C@@H]3C[C@@H]3C2)O[C@@H](c2ccc3c(N)ncnn23)[C@H](O)[C@@H]1O` [Compound 39, ((2R,3S,4R,5S)-5-(4-aminopyrrolo[2,1-f][1,2,4]triazin-7-yl)-2-cyano-3,4-dihydroxytetrahydrofuran-2-yl)methyl ((1R,3r,5S)-bicyclo[3.1.0]hexan-3-yl) carbonate], the half-life at 2 μM in data set [1] was 27 min. Moreover, in data set [2], the EC50 is 28.1 µM.

In the case of `C[C@H]1CC[C@H](OC(=O)OC[C@@]2(C#N)O[C@@H](c3ccc4c(N)ncnn34)[C@H](O)[C@@H]2O)CC1` [Compound 40, ((2R,3S,4R,5S)-5-(4-aminopyrrolo[2,1-f][1,2,4]triazin-7-yl)-2-cyano-3,4-dihydroxytetrahydrofuran-2-yl)methyl ((1r,4R)-4-methylcyclohexyl) carbonate], the half-life at 2 μM in data set [1] was 36 min. In data set [2], the EC50 worked out at 26.7 µM.

The values above are taken from patent publication US20230382940A1, “ANTIVIRAL COMPOUNDS AND METHODS OF MAKING AND USING THE SAME” (Gilead Sciences, Inc., priority 2022, published 2023).
